Assay results as given in PMC5917093, “Brain Transport Profiles of Ginsenoside Rb1 by Glucose Transporter 1: In Vitro and in Vivo” (Frontiers in Pharmacology, 2018).
Where two headings read alike, the source gives them in different places.

What was measured:
[1] = parameters: method as in Li et al., 2007; conditions: rats, TPNS injection 10.0 mg/kg intravenous; ref Li et al., 2007; cited from earlier work
[2] = Effect of phloretin on distribution of Rb1 in plasma and brain of normal rats; assay type: in vivo, rat; conditions: Rb1 10 mg/kg i.v.; for concentration at 0.5 h / concentration at 2 h / concentration at 6 h: rat
Method: Rats were randomly divided into two groups in 36 of each group. One group served as the control and another group were treated with phloretin. Dose of phloretin was set to be 5 mg/kg. Rb1 (10 mg/kg, i.v.) was administered to the experimental rats after i.v. administration of phloretin or saline for consecutive 1 week. Six rats from each group were selected and the blood samples were collected into heparinized Eppendorf tubes via the abdominal aorta at 0.5, 2, and 6 h after Rb1 administration. Then, brain samples were immediately collected. The plasma samples were obtained by centrifuging at 1000 × g for 10 min. Plasma and brain samples were frozen at -80°C until analysis.
(§1) HPLC–MS/MS was composed by a Shimadzu LC-20A chromatographic system and an API 4000 mass spectrometer equipped with electrospray ionization (ESI) source system. MS/MS detection was performed on an API 4000 mass spectrometer using multiple reaction monitoring (MRM) mode by monitoring the fragmentation of m/z 1107.6 → 179.0 for Rb1 and m/z 779.4 → 345.2 for digoxin (IS). Chromatographic separations were carried out on a Shim-pack XD-ODS column (2.0 mm × 30 mm, 2.2 μm) with a Shim-pack GVD-ODS (2.0 mm × 5 mm, 4.6 μm) guard column (Shimadzu, Japan) at a flow rate of 0.28 mL/min using 10 mM acetic acid in water (phase A) and methanol (phase B) as mobile phase. A linear step gradient elution was performed as followed: phase B was increased from 45 to 90% within the first 3 min, and decreased to 45% within the next 3 min (total gradient time: 6 min). A 10 μL sample was injected into the system with the auto-sample conditioned at 4°C and column temperature maintained at 40°C.
The biological samples (100 μL) were placed in a 1.5 mL Eppendorf tube, and mixed with 10 μL IS solution (500 ng/mL) for 3 min by vortexing. The mixture was extracted with methanol (0.9 mL) by vortexing, and then centrifuged at 14,000 rpm for 5 min. The supernatant (0.8 mL) was transferred to a new 1.5 mL Eppendorf tube and evaporated to dryness under vacuum. The dried residue was reconstituted with 100 μL methanol, vortex-mixed for 30 s, and centrifuged at 14,000 rpm for 5 min. Finally, 10 μL of the supernatant liquid was immediately subjected to HPLC–MS/MS analysis. The system control and data analysis were performed by AB Sciex Analyst software (the software version: Analyst 1.5.1). Retention time for Rb1 was tR = 3.80 ± 0.01 min and for IS digoxin tR = 3.13 ± 0.01 min. The lowest limits of quantitation of Rb1 in cell lysate, plasma, and brain homogenate were 1, 2.5, and 1 ng/mL, respectively. The recoveries were higher than 90%; the relative standard deviations (SD) of intra-day and inter-day were lower than 10%.

[3] = system: rBMEC (primary cultured rat brain microvascular endothelial cells); assay: Uptake of Rb1 by primary cultured rBMEC (time course, temperature, concentration dependence, Michaelis-Menten kinetics); assay type: in vitro ADME
Method: Isolation and culture of rat brain microvessel endothelial cells were operated according to previous studies with some modifications ([Liu et al., 2013]). The isolated rBMEC was seeded in cultured flasks coated with 2% gelatin and cultured in culture medium. The culture medium consisted of DMEM/F12 supplemented with 20% FBS, 2 mM L-glutamine, heparin (50 mg/L), 100 IU/mL penicillin, 100 μg/mL streptomycin, and NaHCO3 (0.5 g/L). On the first day after seeding, the culture medium was replaced, after which the culture medium was replaced every 2 days. At 5–6 days, the rBMEC was transferred to 6-well plates coated with gelatin and cultured in an incubator with a saturated humidity at 37°C in 5% CO2 and 95% air. Transport studies were performed when cells reached 100% confluency. The endothelial phenotype of the rBMEC was identified by staining for the endothelial cell marker vWF using a confocal laser scanning microscope (Leica TCS SP8).
When rBMEC was grown to 100% confluency in gelatin-coated 6-well plates, uptake experiments were performed. Briefly, the cultured cell monolayer was washed three times with 1 mL of pH 7.4 Hanks’ balanced salt solution (HBSS). The cultured rBMEC was pre-incubated for 30 min in 1 mL HBSS at 37 or 4°C. After pre-incubation, the HBSS solution was removed by suction, and HBSS (1 mL) containing 60 μg/mL Rb1 was added to initiate uptake. Then the cells were incubated at 37 or 4°C at a set time (5, 10, 15, 30, 60, 120, and 240 min). After the end of the incubation, the incubation solution was aspirated and the monolayers were carefully washed three times with 1 mL ice-cold HBSS to terminate the uptake. Then, 0.5 mL ultrapure water was added to each incubated well, and the material in the wells was frozen (at -80°C)/thawed (at room temperature) repeatedly four times to lyse cells. After the solubilized, the monolayer supernatants were collected and 10 μL was injected into LC–MS/MS to determine Rb1 concentration. The protein contents of the cell monolayers were measured by the method of Bradford using BSA as the standard ([Bradford, 1976]). Uptake was expressed as the cell-to-medium ratio (μL/mg protein or μL/mg protein/min) and termed the volume of distribution (Vd), obtained by dividing the uptake amount by the concentration of substrate in the transport medium. Vd is derived from the ratio of ng/mg protein to ng/μL buffer.
The uptake data were fitted to the above equation by nonlinear least-squares regression analysis with Graphpad Prism 5.0 software.
as §1
The biological samples (100 μL) were placed in a 1.5 mL Eppendorf tube, and mixed with 10 μL IS solution (500 ng/mL) for 3 min by vortexing. The mixture was extracted with methanol (0.9 mL) by vortexing, and then centrifuged at 14,000 rpm for 5 min. The supernatant (0.8 mL) was transferred to a new 1.5 mL Eppendorf tube and evaporated to dryness under vacuum. The dried residue was reconstituted with 100 μL methanol, vortex-mixed for 30 s, and centrifuged at 14,000 rpm for 5 min. […]

[4] = 7.5-960 μg/mL Rb1, 37°C, 120 min, Michaelis-Menten fit

## CC(C)=CCC[C@](C)(O[C@@H]1O[C@H](CO[C@@H]2O[C@H](CO)[C@@H](O)[C@H](O)[C@H]2O)[C@@H](O)[C@H](O)[C@H]1O)[C@H]1CC[C@]2(C)[C@@H]1[C@H](O)C[C@@H]1[C@@]3(C)CC[C@H](O[C@@H]4O[C@H](CO)[C@@H](O)[C@H](O)[C@H]4O[C@@H]4O[C@H](CO)[C@@H](O)[C@H](O)[C@H]4O)C(C)(C)[C@@H]3CC[C@]12C [Rb1, Ginsenoside Rb1]
[1]
  duration in brain tissue: ~24 h
  largest content in brain tissue: about 1.4 μg/g
[2]; 0.5 h, phloretin-treated (5 mg/kg i.v., 1 week)
  Brain-to-plasma concentration ratio (Kp): 2.15 ± 0.19 μL/g brain
[2]; 0.5 h, untreated normal rats
  Brain-to-plasma concentration ratio (Kp): 7.09 ± 1.01 μL/g brain
[2]; 2 h, phloretin-treated (5 mg/kg i.v., 1 week)
  Brain-to-plasma concentration ratio (Kp): 2.56 ± 0.06 μL/g brain
[2]; 2 h, untreated normal rats
  Brain-to-plasma concentration ratio (Kp): 4.9 ± 0.35 μL/g brain
[2]; 6 h, phloretin-treated (5 mg/kg i.v., 1 week)
  Brain-to-plasma concentration ratio (Kp): 1.59 ± 0.005 μL/g brain
[2]; 6 h, untreated normal rats
  Brain-to-plasma concentration ratio (Kp): 3.24 ± 0.53 μL/g brain
[2]; brain, intravenous, 0.5 h, phloretin-treated (5 mg/kg i.v., 1 week), read-out: Brain concentration
  concentration at 0.5 h: 105 ± 15.1 ng/g
[2]; brain, intravenous, 2 h, phloretin-treated (5 mg/kg i.v., 1 week), read-out: Brain concentration
  concentration at 2 h: 84.8 ± 4.1 ng/g
[2]; brain, intravenous, 6 h, phloretin-treated (5 mg/kg i.v., 1 week), read-out: Brain concentration
  concentration at 6 h: 39.9 ± 4.9 ng/g
[2]; brain, iv, 0.5 h, untreated normal rats, read-out: Brain concentration
  concentration at 0.5 h: 490 ± 58.3 ng/g
[2]; brain, iv, 2 h, untreated normal rats, read-out: Brain concentration
  concentration at 2 h: 194 ± 11.1 ng/g
[2]; brain, iv, 6 h, untreated normal rats, read-out: Brain concentration
  concentration at 6 h: 114 ± 24 ng/g
[2]; plasma, intravenous, 0.5 h, phloretin-treated (5 mg/kg i.v., 1 week), read-out: Plasma concentration
  concentration at 0.5 h: 48700 ± 2900 ng/mL
[2]; plasma, intravenous, 2 h, phloretin-treated (5 mg/kg i.v., 1 week), read-out: Plasma concentration
  concentration at 2 h: 33200 ± 1400 ng/mL
[2]; plasma, intravenous, 6 h, phloretin-treated (5 mg/kg i.v., 1 week), read-out: Plasma concentration
  concentration at 6 h: 27000 ± 1500 ng/mL
[2]; plasma, iv, 0.5 h, untreated normal rats, read-out: Plasma concentration
  concentration at 0.5 h: 69300 ± 4500 ng/mL
[2]; plasma, iv, 2 h, untreated normal rats, read-out: Plasma concentration
  concentration at 2 h: 39700 ± 4100 ng/mL
[2]; plasma, iv, 6 h, untreated normal rats, read-out: Plasma concentration
  concentration at 6 h: 35200 ± 3000 ng/mL
[3]; 60 μg/mL Rb1
  intracellular amounts of Rb1 at 37°C relative to 4°C: about two to threefold
[3]; 60 μg/mL Rb1, 37°C
  time at which steady-state uptake occurred: 120 min
[3]; [4]
  Km: 119 ± 15.6 µM
  Vmax of Rb1 uptake: 0.0034 ± 0.0003 nmol/(mg protein ⋅ min)
[3]; 37°C
  nonsaturable component (Pdiff) of Rb1 transport: 0.0023 μL/(mg protein ⋅ min)
[3]; low concentration range
  share of total Rb1 uptake accounted for by the saturable component: 90%
